From patent US4365066A, “2(4-n-Hexadecyl amino or oxy phenyl) 5 ethoxy oxazoleacetic acid derivatives” (Yoshitomi Pharmaceutical Industries Ltd., priority 1979, dated 1982)
Where two headings read alike, the source gives them in different places.

Key:
[1] = system: Cholesterol and triglyceride in the serum; assay: (i) Serum cholesterol and triglyceride reduction in rats fed a diet containing 1% of cholesterol; type: in vivo, Male Sprague-Dowley rats; conditions: rats on diet containing 1% cholesterol, test compound 0.1% (W/W) in diet, oral, 5 days, control = 100%
Protocol: (§1) (i) Male Sprague-Dowley rats were used. Each group was composed of 8 animals. Rats were fed a diet containing 1% of cholesterol. The test compound was orally administered to the animal by feeding with the diet to which the compound was blended in a ratio of 0.1% (W/W) for 5 days. Cholesterol and triglyceride in the serum were determined by the standard methods using an autoanalyzer (Technicon Inc.). The levels in the control group were considered as 100% and the reduction rate in the test group was calculated.

[2] = system: Cholesterol and triglyceride in the serum; assay: (ii) Serum cholesterol and triglyceride reduction in rats fed a conventional diet; type: in vivo, Male Sprague-Dowley rats; conditions: rats on conventional diet, test compound 0.1% (W/W) in diet, oral, 5 days, control = 100%
Protocol: as §1, with “calculated. (ii) With the exception that rats were fed a conventional diet instead of the diet containing 1% cholesterol, a test was carried out in the same condition (rats used, administration method, period, concentration of test compound and cholesterol and triglyceride determination) as in the above test (i).” for “calculated.”

[3] = (iii) Acute toxicity (LD50) in mice; conditions: mouse, in vivo, mortality within 7 days
Protocol: (iii) Male dd-strain mice were used. Each group was composed of 10 animals. The test compound was administered intraperitoneally or orally to the animals. The LD50 (mg/kg) was calculated from the mortality within 7 days after administration of the test compound.

blood cholesterol = assay: (iv) Blood cholesterol reduction in hyperlipemic monkeys fed a diet containing 0.25% cholesterol; type: in vivo; conditions: hyperlipemic Rhesus monkeys, diet with 0.25% cholesterol; diet containing 0.7% (W/W) test compound, 15 days; vs control group
[4] = ip, intraperitoneal, read-out: LD50 Intraperitoneal administration
[5] = oral, read-out: LD50 Oral administration

Row | Compound | Reduction Rate (%) Cholesterol [1] [%] | Reduction Rate (%) Triglyceride [1] [%] | Reduction Rate (%) Cholesterol [2] [%] | Reduction Rate (%) Triglyceride [2] [%] | LD50 at 168 h [3, 4] [mg/kg] | LD50 at 168 h [3, 5] [mg/kg] | reduction activity of blood cholesterol (blood cholesterol)
1 | CCCCCCCCCCCCCCCCNc1ccc(-c2nc(CC(=O)[O-])c(OCC)o2)cc1.[Na+] | 31 | 28 | 26 | 44 | > 1000 | > 2500 | outstanding reduction activity
2 | CCOc1oc(-c2ccc(OCc3ccc(Cl)cc3)cc2)nc1CC(=O)O [Compound D, 2-[4-(4-Chlorobenzyloxy)phenyl]-5-ethoxy-4-oxazoleacetic acid] | 37 | 42 | 19 | 53 | – | – | –
3 | CCCCCCCCCCCCCCCCOc1ccc(-c2nc(CC(=O)O)c(Oc3ccc(Cl)cc3)o2)cc1 [Compound C, 2-(4-n-Hexadecyloxyphenyl)-5-(4-chlorophenoxy)-4-oxazoleacetic acid] | 31 | 37 | – | – | – | – | –
4 | CCCCCCCCCCCCCCCCOc1ccc(-c2nc(CC(=O)O)c(OCC)o2)cc1 [Compound A, 2-(4-n-Hexadecyloxyphenyl)-5-ethoxy-4-oxazoleacetic acid] | 21 | 35 | 29 | 44 | > 1000 | > 2500 | outstanding reduction activity
5 | CCOC(=O)C(C)(C)Oc1ccc(Cl)cc1 [Compound E, Clofibrate, reference compound] | 22 | 23 | 23 | 34 | > 1000 | > 1450 | –
